This is an account of results in US5734057A, “HIV protease inhibitors and intermediates” (Eli Lilly and Company, priority 1996, dated 1998).

One assay deals with T1, HIV-1 protease (Human immunodeficiency virus type 1 group M subtype B, UniProt P04585).
T1 construct: HIV-1 Protease
Description: biochemical. To be noted: for IC50: read-out: Inhibitory Activity, Fluorescence Assay IC50 (converted). As for the experimental part:
These compounds may be assayed using two assays: (1) an enzyme inhibition assay, and (2) an antiviral cell culture assay.
This assay is described in detail in published European Patent Application (EPA) 0 526 009, herein incorporated by reference. Using this assay, a number of the compounds, prepared above, were assayed for HIV protease inhibitory activity.
The assay is unable to test compounds at less than a concentration of 0.16 ng/mL.

Another assay deals with HIV. Description: Antiviral cell culture assay (XTT viability of HIV-infected cells). The format is cell-based. The source says:
As noted above, the compounds of formula (I) are useful as HIV protease inhibitors and for preparing HIV protease inhibitors. These compounds may be assayed using two assays: (1) an enzyme inhibition assay, and (2) an antiviral cell culture assay.
In addition, the compounds described in the present application may be tested using an antiviral cell culture assay as described in Weislow, O. S., J. of National Cancer Institute, 81(8), pages 577-586 (Apr. 19, 1989) herein incorporated by reference.
This assay compares the viability of HIV-infected cells in a cell culture medium relative to the viability of such cells in the presence of a test compound. The concentration of test compound necessary to inhibit 90% of the virus is then measured using the viability of the cells as an indicator of viral inhibition. This assay is carried out using cell lines that are sensitive to the lyric effects of HIV infection.
Specifically, this assay utilizes the metabolic reduction of a tetrazolium reagent, 2,3-bis[2-methoxy-4-nitro-5-sulfophenyl]-5-[(phenylamino carbonyl]-2H-tetrazolium hydroxide (XTT). In the presence of a viable cell, the tetrazolium reagent, XTT, ms reduced to provide XTT formazan which may be quantified using colorimetric determination (at 450 nm). The intensity of the chromogenic signal is directly proportional to the concentration of the XTT formazan, thus providing a measure of the quantity of viable cells.
The compounds prepared in Examples 9 and 10, above, were tested using this assay.
For orientation: Tetrazolium assays rely on reduction of a dye to a coloured formazan, in cell work by metabolically active cells.

The mark [1] stands for this setting: concentration that inhibits 50% of the enzyme, assay limit 0.16 ng/mL.
[2] abbreviates: Human immunodeficiency virus 1, concentration that inhibits 90%.

Like-named read-outs stand apart in the source and are kept apart here.

As for `Cc1c(O)cccc1C(=O)N[C@@H](CSc1ccccc1)[C@H](O)CN1C[C@H]2CCS[C@H]2C[C@H]1C(=O)NC(C)(C)C` [Example 10, N-t-Butyl-octahydro-5[2R-hydroxy-3R-N(2'-methyl-3'-hydroxyphenylcarbonyl)amino-4-phenylthio-butyl]-(3aR,7aS)-thieno[3,2-c] pyridine-(6S)-carboxamide methanesulfonate], at HIV-1 protease (at 0.16 ng/mL, read-out: % inhibition at stated concentration (IC74 (0.16))), the inhibition at 0.00016 µg/mL was 74%. Besides, in the assay with HIV (concentration that inhibits 90%), the IC90 (usually the point of the concentration-response curve where the effect stands at 90%) was determined as 10 nM.

`Cc1c(O)cccc1C(=O)N[C@@H](CSc1ccccc1)[C@H](O)CN1C[C@H]2CCS[C@H]2C[C@H]1C(=O)NC(C)(C)C` [Example 9, N-t-Butyl-octahydro-5[2R-hydroxy-3R-N(2'-methyl-3'-hydroxyphenylcarbonyl)amino-4-phenylthio-butyl]-(3aR,7aS)-thieno[3,2-c] pyridine-(6S)-carboxamide]: the IC50 – broadly, the midpoint of a concentration-inhibition curve – on HIV-1 protease (setting [1]) is 0.315 nM. In the assay with HIV (setting [2]), this molecule came in with a concentration for an effect of 90% (IC90) of 17 nM. The like results for `CC(C)(C)NC(=O)[C@@H]1C[C@@H]2SCC[C@@H]2CN1C[C@@H](O)[C@H](Cc1ccccc1)NC(=O)OCc1ccccc1` [Example 5, N-t-Butyl-octahydro-5[2R-hydroxy-4-phenyl-3S-N(benzyloxycarbonyl)amino-butyl]-(3aR,7aS)-thieno[3,2-c]pyridine-(6S)-carboxamide] were, in that order, 6.3 nM and 2000 nM. Consider `CC(C)(C)NC(=O)[C@@H]1C[C@@H]2SCC[C@@H]2CN1C[C@@H](O)[C@H](CSc1ccccc1)NC(=O)OCc1ccccc1` [Example 7, N-t-Butyl-octahydro-5[2R-hydroxy-4-thiophenyl-3R-N(benzyloxycarbonyl)amino-butyl]-(3aR,7aS)-thieno[3,2-c] pyridine-(6S)-carboxamide], for which the IC50 on HIV-1 protease is 3.32 nM.
